Results from US20250000847A1, “TREATMENT OF NEURODEGENERATIVE DISEASES WITH HDAC INHIBITORS” (CASE WESTERN RESERVE UNIVERSITY, priority 2021, published 2025).

Key:
[1] = system: GBP2+ reactive astrocytes; experiment: Primary high-throughput screen, formation of GBP2+ damaging reactive astrocytes; type: cell-based, mouse; conditions: 2 μM, TNFα, IL-1α, C1q, 24 hours
Procedure: Specifically, resting astrocytes were first thawed and plated onto 384-well plates at a density of about 500 cells/mm^2. A Perkin Elmer Janus G3 Varispan Automated Workstation was then used to treat cells with candidate small-molecules from a library of 3115 bioactive small-molecules, with one type of small molecule per well, at a concentration of about 2 μM in 384-well plates, followed one hour later by exposing the pre-treated astrocytes with such reactive astrocyte driving factors as IL-1α (3 ng/mL, Sigma #I3901), C1q (400 ng/mL, MyBioSource #MBS143105), and TNFα (30 ng/mL, R&D Systems #210-TA-020). […]
The cells were then imaged using the PerkinElmer Operetta CLS High-Content Analysis System. Images were analyzed using automated PerkinElmer Columbus Image Analysis Software.
Hits were then determined as those compounds that decreased the number of GBP2^+ reactive astrocytes by greater than 80% compared to reactive astrocytes plus DMSO vehicle control wells. […]
For screening, all liquid handling was performed using a BioTek EL406 Washer Dispenser. […] Images were analyzed using automated PerkinElmer Columbus Image Analysis Software. For analysis, toxic chemicals were first removed; a chemical was considered toxic if it decreased the counted number of live cells in the well by greater than 30% compared to reactive astrocytes plus DMSO vehicle control wells. […]

[2] = system: genes associated with damaging and beneficial reactive astrocytes; experiment: Bulk RNAseq of reactive astrocytes; type: cell-based, mouse
Excerpt: Total RNA was extracted from resting and reactive astrocytes using the same procedure as described for qPCR and sent to Novogene for mRNA Sequencing.
For gene expression analysis, reads were mapped to the mm10 genome using kallisto 0.46.1 (Bray et al., Nat Biotechnol 34, 525-527, doi:10.1038/nbt.3519 (2016)). Transcripts were summarized to the gene level with tximport (Soneson et al., F1OORes 4, 1521, doi:10.12688/fl000research.7563.2 (2015). Normalized expression and differentiation gene expression was then generated using DESEQ2 (Love et al., Genome Biol 15, 550, doi:10.1186/s13059-014-0550-8 (2014)).

[3] = system: Gbp2 and Psmb8; experiment: Gene expression in cultured human astrocytes (qPCR); type: cell-based
Procedure: Human induced pluripotent stem cells (iPSCs) were cultured to differentiate into astrocytes as described by Perriot et al. (2018). In short, iPSC colonies were placed in neural induction media for 10 days until neural rosettes could be picked, dissociated, and plated in a glial expansion medium. These cells were allowed to proliferate and become a homogenous population of glial progenitor cells (GPCs) over eight passages on poly-L-ornithine and laminin-coated plates. These GPCs were then passaged onto a Matrigel-coated plate to culture in an astrocyte induction media for two weeks, which was followed by culturing for another four weeks in an astrocyte maturation medium.
Cells were lysed in TRIzol and total RNA was extracted with phenol-chloroform followed by spin columns from the RNEasy Mini Kit (74104, QIAGEN). RNA quality and quantity was determined using a NanoDrop spectrophotometer. The RNA was then reverse transcribed using the iScript cDNA synthesis kit (1708891, Bio-Rad) according to the manufacturer's instructions. […]

[4] = Pharmacokinetics, brain tissue; type: in vivo, mouse
Procedure: Mice were then perfused with saline to remove blood from the brain. Brain tissue was then collected and snap frozen. Brain tissues were thawed at room temperature and homogenized in PBS. Calibration standards and study samples were extracted with 3× volume of acetonitrile containing 0.1% formic acid+200 ng/ml internal standard solution. Samples were then vortexed each for 1 minute and then transferred to an Eppendorf R5417R and centrifuged at 14000 rpm for 7 minutes. Following extraction of tissue homogenate calibrators and study samples were transferred directly to an autosampler microtiter plate for analysis. Samples were analyzed by LC-MS-MS in the positive ion electrospray ionization mode.

[5] = system: acetylated histone 4 (AcH4); experiment: Acetylated histone 4 in vivo (target engagement); parameters: species or system mouse; conditions: chronic daily 10 mg/kg, then two days of 5 mg/kg LPS
Procedure: Mice were perfused with PBS followed by 4% paraformaldehyde, after which brains were extracted and cryopreserved in 30% sucrose then frozen in OCT and sectioned. The stain slides were washed with PBS then incubated overnight with primary antibody against acetyl-Histone H4 (EMD Millipore, 06-866). After primary incubation slides were then washed and labeled with AlexaFluor secondary antibodies (ThermoFisher). Images were captured on a Hamamatsu Nanozoomer S60 Slide scanner with NDP 2.0 software. Image analysis was performed using Perkin Elmer Columbus automated software.

[6] = system: retinal ganglion cells (RGCs); experiment: Optic nerve crush model of neurodegeneration; type: in vivo, mouse; conditions: 10 mg/kg daily i.p. for 14 days after optic nerve crush
Excerpt: The optic nerve of adult mice was surgically accessed and crushed. […] 14 days after optic nerve crush surgery, retina were harvested and stained for the RGC marker BRN3A, and the pan neuronal maker BIII-tubulin.

[7] = system: other HDAC; conditions: at up to 15 μM; cited from earlier work

Nc1cc(F)ccc1NC(=O)/C=C/c1cnn(C/C=C/c2ccccc2)c1 [RGFP966]
inhibition of the formation of proinflammatory toxic (reactive) astrocytes [1]: robustly inhibit | expression of genes associated with beneficial reactive astrocytes (BRA) [2]: increasing expression | expression of genes associated with damaging reactive astrocytes (DRA) [2]: decreased expression | expression of genes associated with DRAs, Gbp2 and Psmb8 [3]: decreased expression | concentration in brain tissue ([4]; chronic treatment, 10 mg/kg i.p. daily): equal to the IC50 | brain permeance ([4]; mice, 10 mg/kg i.p.): brain permeant | levels of acetylated histone 4 (AcH4) [5]: increased | protection of retinal ganglion cells (RGCs) from neurodegeneration [6]: protects | inhibition of other HDAC isozymes [7]: no inhibition
